Experiment [1] addresses T1, Prostaglandin G/H synthase 2 (Homo sapiens) (UniProt P35354).
T1 sequence (whole entry): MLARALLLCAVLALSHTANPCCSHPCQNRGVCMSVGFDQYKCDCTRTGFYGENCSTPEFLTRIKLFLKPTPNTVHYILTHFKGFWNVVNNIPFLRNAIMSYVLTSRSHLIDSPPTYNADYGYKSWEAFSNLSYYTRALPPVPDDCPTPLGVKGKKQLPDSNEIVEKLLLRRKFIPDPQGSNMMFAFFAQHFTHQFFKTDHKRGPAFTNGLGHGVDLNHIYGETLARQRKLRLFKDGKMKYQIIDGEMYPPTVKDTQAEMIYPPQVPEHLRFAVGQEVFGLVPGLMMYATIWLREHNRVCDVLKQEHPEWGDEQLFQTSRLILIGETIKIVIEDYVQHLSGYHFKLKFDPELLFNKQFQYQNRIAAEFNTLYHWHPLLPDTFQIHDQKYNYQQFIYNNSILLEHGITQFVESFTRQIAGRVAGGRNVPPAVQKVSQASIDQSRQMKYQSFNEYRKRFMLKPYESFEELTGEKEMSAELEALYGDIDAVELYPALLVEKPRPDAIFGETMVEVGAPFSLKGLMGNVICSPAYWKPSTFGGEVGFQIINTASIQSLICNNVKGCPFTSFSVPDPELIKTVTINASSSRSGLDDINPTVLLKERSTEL
Kind of experiment: Inhibition of COX2 at 50 uM.

For experiment [2], the system named is BGC-823. In words: Cytotoxicity activity against human BGC823 cells after 72 hrs by MTT assay. Conditions: BGC-823, 72 h. Format: functional, cell-based.
For experiment [3], the system named is HCT-8. Kind of experiment: Cytotoxicity activity against human HCT8 cells after 72 hrs by MTT assay. Format: functional, cell-based. Conditions: HCT-8, 72 h.
In experiment [4] the test system is A2780. Kind of experiment: Cytotoxicity activity against human A2780 cells after 72 hrs by MTT assay. Format: functional, cell-based. Conditions: A2780, 72 h.
The test system of experiment [5] is Bel-7402. In words: Cytotoxicity activity against human Bel7402 cells after 72 hrs by MTT assay. Conditions: Bel-7402, 72 h. It counts as functional, cell-based.
Experiment [6] deals with A549. In words: Cytotoxicity activity against human A549 cells after 72 hrs by MTT assay. Format: functional, cell-based.

pIC50: −log10 of the molar value. The source made the active and inactive calls. No cut-off for these calls is given here.

In turn, `C=C(C(=O)O)C(CCC(C)=O)CC1=C(C)C(=O)CC1=O` (stereo not drawn) had an inhibition in experiment [1] of 98.2%.

As to `C=C1C(=O)O[C@H]2[C@H]1CC[C@](C)(O)[C@]13O[C@H]1[C@H](Cl)[C@](C)(O)[C@H]23`, the inhibition in experiment [1] was 98.4%.

For the molecule `C=C1C(=O)O[C@@H]2[C@@H]3C4(C=C[C@@]3(C)C3(C4)C(=O)O[C@@H]4[C@H]5C(C)=CC(=O)C5=C(C)C[C@H](O)[C@H]43)[C@@](C)(OC(C)=O)CC[C@@H]12` (stereo partly drawn) [ARTANOMALIDE D], the pIC50 is 5.07 in experiment [2], 5.72 in experiment [3], 5.74 in experiment [4] and 5.52 in experiment [5]. Further, in experiment [1], the inhibition came out at 99.5%. In experiment [6], the outcome was inactive.

The values are drawn from ChEMBL document CHEMBL1154828, “Dimeric guaianolides and sesquiterpenoids from Artemisia anomala” (J Nat Prod, 2010).
